{
  "source": "patent US6723741B2",
  "about": "“Benzimidazoles and benzothiazoles and uses thereof” (Synaptic Pharmaceutical Corporation, priority 1996, dated 2004)",
  "key": {"[1]": {"target": "T1, human α2C adrenergic receptor (Homo sapiens, UniProt P18825)", "T1 construct": "The entire coding region of α2C (1383 bp), including 2 bp of 5′ UT and 400 bp of 3′ UT; expressed in transfected cells", "T1 sequence (P18825 1-462)": "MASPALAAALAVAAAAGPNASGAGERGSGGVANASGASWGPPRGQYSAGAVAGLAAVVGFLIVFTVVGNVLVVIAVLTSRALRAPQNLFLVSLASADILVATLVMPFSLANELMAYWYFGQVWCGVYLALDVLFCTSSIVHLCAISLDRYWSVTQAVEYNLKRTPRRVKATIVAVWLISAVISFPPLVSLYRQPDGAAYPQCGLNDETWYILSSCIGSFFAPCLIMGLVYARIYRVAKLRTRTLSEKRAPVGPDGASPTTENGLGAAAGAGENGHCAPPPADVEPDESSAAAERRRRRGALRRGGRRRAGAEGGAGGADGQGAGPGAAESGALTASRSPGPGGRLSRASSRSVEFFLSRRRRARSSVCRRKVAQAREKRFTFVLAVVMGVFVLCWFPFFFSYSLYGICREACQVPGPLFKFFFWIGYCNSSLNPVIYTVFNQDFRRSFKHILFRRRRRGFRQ", "assay": "Agonist activity: inhibition of forskolin-stimulated cAMP synthesis", "assay_type": "cell-based", "details": "for EC50: inhibition of forskolin-stimulated cAMP, stably transfected cells expressing human α2C, read-out: pEC50 Alpha-2 C (converted); for I.A (Intrinsic Activity) Alpha-2 C: maximum activity relative to maximum activity induced by norepinephrine, human α2C"}, "[2]": {"target": "T2, human α2B adrenergic receptor (Homo sapiens, UniProt P18089)", "T2 construct": "expressed in transfected cells", "T2 sequence (P18089 1-450)": "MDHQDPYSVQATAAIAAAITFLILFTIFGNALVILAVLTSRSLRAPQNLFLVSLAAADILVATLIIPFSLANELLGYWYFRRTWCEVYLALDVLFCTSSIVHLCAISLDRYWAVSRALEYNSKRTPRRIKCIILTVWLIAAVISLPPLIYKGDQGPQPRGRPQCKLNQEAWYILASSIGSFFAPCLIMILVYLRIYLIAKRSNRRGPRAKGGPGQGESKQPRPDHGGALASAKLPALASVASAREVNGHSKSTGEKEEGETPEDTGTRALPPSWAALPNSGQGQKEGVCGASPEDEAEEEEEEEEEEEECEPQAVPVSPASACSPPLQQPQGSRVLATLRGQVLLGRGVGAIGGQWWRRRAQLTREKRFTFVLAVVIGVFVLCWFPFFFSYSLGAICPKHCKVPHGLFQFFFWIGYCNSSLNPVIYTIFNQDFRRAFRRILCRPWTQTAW", "assay": "Radioligand binding assay, [3H]rauwolscine competition"}, "[3]": {"target": "T2, human α2B adrenergic receptor", "assay": "Agonist activity: inhibition of forskolin-stimulated cAMP synthesis", "assay_type": "cell-based", "details": "for I.A (Intrinsic Activity) Alpha-2 B: maximum activity relative to maximum activity induced by norepinephrine, human α2B"}, "[4]": {"target": "T3, human α1A adrenergic receptor (Homo sapiens, UniProt P25100)", "T3 construct": "expressed in transfected cells", "T3 sequence (P25100 1-572)": "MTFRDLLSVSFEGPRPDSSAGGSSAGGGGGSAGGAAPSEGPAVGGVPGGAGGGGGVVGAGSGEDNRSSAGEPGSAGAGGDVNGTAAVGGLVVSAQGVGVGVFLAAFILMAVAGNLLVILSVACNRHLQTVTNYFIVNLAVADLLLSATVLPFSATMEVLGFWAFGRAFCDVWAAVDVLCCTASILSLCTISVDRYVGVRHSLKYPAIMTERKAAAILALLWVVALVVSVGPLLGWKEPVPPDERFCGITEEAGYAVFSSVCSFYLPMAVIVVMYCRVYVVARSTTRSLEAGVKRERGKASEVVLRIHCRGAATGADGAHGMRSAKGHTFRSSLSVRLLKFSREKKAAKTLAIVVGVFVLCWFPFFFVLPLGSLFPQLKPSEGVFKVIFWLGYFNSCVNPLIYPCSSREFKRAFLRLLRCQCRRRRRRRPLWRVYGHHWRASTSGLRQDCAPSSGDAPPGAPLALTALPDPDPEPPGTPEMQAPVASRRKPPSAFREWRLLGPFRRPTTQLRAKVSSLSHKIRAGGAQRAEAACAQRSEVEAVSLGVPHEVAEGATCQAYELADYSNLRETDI", "assay": "Radioligand binding assay, [3H]prazosin competition", "details": "cloned human α1A (old nomenclature; = α1D), LM(tk-) cell membranes, read-out: pKi Alpha-1 A (converted)", "experimental": "Equilibrium competition binding assays were performed with membrane preparations from cultured LM(tk^−) cells stably transfected with the cloned human alpha adrenoreceptor subtypes except for α2b, which was expressed in Y-1 cells, using [^3H] prazosin for α1 receptors and [^3H] rauwolscine for α2 receptors. Further details of pharmacological evaluations of claimed compounds are described in Example 21.\nThe cloned human alpha-1 adrenergic receptor subtypes referred to throughout this application as α1A, α1B, and α1C have recently been assigned new subtype designations by the IUPHAR Nomenclature Committee as outlined in the 1995 Receptor and Ion Channel Nomenclature Supplement (Watson and Girdlestone, 1995). In the new nomenclature system the cloned human α1A receptor referred to herein was given the appellation “α1D,” while the cloned human α1C receptor referred to herein was given the appellation “α1A”. However, throughout this application and the supporting tables and figures the old nomenclature will be used to describe the cloned human alpha-1 adrenergic receptor subtypes. The old nomenclature is used throughout this application because stable cell lines expressing the cloned human alpha-1 adrenergic receptors were produced and deposited with the ATCC according to the Budapest Treaty for the Deposit of Microorganisms, under designations assigned before the nomenclature change.\nThe construct involved the ligation of partial overlapping human lymphocyte genomic and hippocampal cDNA clones: 5′ sequences were contained on a 1.2 kb SmaI-XhoI genomic fragment (the vector-derived BamHI site was used for subcloning instead of the internal insert-derived SmaI site) and 3′ sequences were contained on 1.3 kb XhoI-ClaI cDNA fragment (the ClaI site was from the vector polylinker). Stable cell lines were produced and selected as described above.\nTransfected cells from culture flasks were scraped into 5 mL of 5 mM Tris-HCl, 5 mM EDTA, pH 7.5, and lysed by sonication. The cell lysates were centrifuged at 1000 rpm for 5 min at 4° C., and the supernatant was centrifuged at 30,000×g for 20 min at 4° C. The pellet was suspended in 50 mM Tris-HCl, 1 mM MgCl2, and 0.1% Ascorbic acid at pH 7.5. Binding of α2 antagonist [^3H] rauwolscine ([…]) to membrane preparations of LM(tk−) cells was done in a final volume of 0.25 mL and incubated at 37° C. for 20 min. Nonspecific binding was determined in the presence of 10 μM phentolamine. The reaction was stopped by filtration through GF/B filters using a cell harvester."}, "[5]": {"details": "inhibition of forskolin-stimulated cAMP, stably transfected cells expressing human α2B, read-out: pEC50 Alpha-2 B (converted)"}},
  "note": "Like-named read-outs stand apart in the source and are kept apart here.",
  "data": [
    {"smiles": "Brc1cc(NC2=NCCN2)cc2cc[nH]c12", "note": "[Example 2, 7-Bromo-5-(2-imidazolin-2-ylamino)indole]", "values": [
      {"measurement": "EC50", "setting": "[1]", "value": 0.407, "unit": "nM"},
      {"measurement": "I.A (Intrinsic Activity) Alpha-2 C", "setting": "[1]", "value": 1.00},
      {"measurement": "Ki", "setting": "[2]", "value": 2.88, "unit": "nM"},
      {"measurement": "EC50", "setting": "[3]; [5]", "value": 1.91, "unit": "nM"},
      {"measurement": "I.A (Intrinsic Activity) Alpha-2 B", "setting": "[3]", "value": 0.75},
      {"measurement": "Ki", "setting": "[4]", "value": 2.88, "unit": "nM"}
    ]},
    {"smiles": "N#Cc1cc(NC2=NCCN2)cc2cc[nH]c12", "note": "[Example 5, 7-Cyano-5-(2-imidazolin-2-ylamino)indole]", "values": [
      {"measurement": "EC50", "setting": "[1]", "value": 0.589, "unit": "nM"},
      {"measurement": "I.A (Intrinsic Activity) Alpha-2 C", "setting": "[1]", "value": 1.00},
      {"measurement": "Ki", "setting": "[2]", "value": 15.5, "unit": "nM"},
      {"measurement": "EC50", "setting": "[3]; [5]", "value": 316, "unit": "nM"},
      {"measurement": "I.A (Intrinsic Activity) Alpha-2 B", "setting": "[3]", "value": 0.60},
      {"measurement": "Ki", "setting": "[4]", "value": 162, "unit": "nM"}
    ]},
    {"smiles": "CC(=O)c1cc(NC2=NCCN2)cc2cc[nH]c12", "note": "[Example 6, 7-Acetyl-5-(2-imidazolin-2-ylamino)indole]", "values": [
      {"measurement": "EC50", "setting": "[1]", "value": 40.7, "unit": "nM"},
      {"measurement": "I.A (Intrinsic Activity) Alpha-2 C", "setting": "[1]", "value": 0.90},
      {"measurement": "Ki", "setting": "[2]", "value": 45.7, "unit": "nM"},
      {"measurement": "EC50", "setting": "[3]; [5]", "value": 81.3, "unit": "nM"},
      {"measurement": "I.A (Intrinsic Activity) Alpha-2 B", "setting": "[3]", "value": 0.70},
      {"measurement": "Ki", "setting": "[4]", "value": 93.3, "unit": "nM"}
    ]},
    {"smiles": "c1nc2cc(NC3=NCCN3)ccc2s1", "note": "[Example 13, 5-(2-Imidazolin-2-ylamino)benzothiazole]", "values": [
      {"measurement": "EC50", "setting": "[1]", "value": 0.603, "unit": "nM"},
      {"measurement": "I.A (Intrinsic Activity) Alpha-2 C", "setting": "[1]", "value": 1.00},
      {"measurement": "Ki", "setting": "[2]", "value": 4.57, "unit": "nM"},
      {"measurement": "EC50", "setting": "[3]; [5]", "value": 10.2, "unit": "nM"},
      {"measurement": "I.A (Intrinsic Activity) Alpha-2 B", "setting": "[3]", "value": 0.82},
      {"measurement": "Ki", "setting": "[4]", "value": 186, "unit": "nM"}
    ]},
    {"smiles": "c1nc2ccc(NC3=NCCN3)cc2s1", "note": "[Example 14, 6-(2-Imidazolin-2-ylamino)benzothiazole]", "values": [
      {"measurement": "I.A (Intrinsic Activity) Alpha-2 C", "setting": "[1]", "value": 1.00},
      {"measurement": "Ki", "setting": "[2]", "value": 14.1, "unit": "nM"},
      {"measurement": "EC50", "setting": "[3]", "value": 14.1, "unit": "nM"},
      {"measurement": "I.A (Intrinsic Activity) Alpha-2 B", "setting": "[3]", "value": 0.47},
      {"measurement": "Ki", "setting": "[4]", "value": 1700, "unit": "nM"}
    ]},
    {"smiles": "c1nc2ccc(NC3=NCCS3)cc2s1", "note": "[Example 15, 6-(2-Thiazolin-2-ylamino)benzothiazole]", "values": [
      {"measurement": "I.A (Intrinsic Activity) Alpha-2 C", "setting": "[1]", "value": 0.88},
      {"measurement": "Ki", "setting": "[2]; cloned human α2B, Y-1 cell membranes, [3H]rauwolscine, read-out: pKi Alpha-2 B (converted)", "value": 162, "unit": "nM"},
      {"measurement": "EC50", "setting": "[3]; [5]", "value": 138, "unit": "nM"},
      {"measurement": "I.A (Intrinsic Activity) Alpha-2 B", "setting": "[3]", "value": 0.57},
      {"measurement": "Ki", "setting": "[4]", "value": 6030, "unit": "nM"}
    ]}
  ]
}
